# Results taken from ChEMBL document CHEMBL1201862, “PubChem BioAssay data set” (2004).
# Where a name gives a salt, the structure may show the parent alone. Active and inactive are the calls of the source.
# How the values were obtained:
# [1] = cells; type: functional, cell-based
# [2] = target: T1, Trace amine-associated receptor 1 (Homo sapiens, UniProt Q96RJ0); experiment: Fluorescence-based cell-based high throughput dose response assay to identify agonists of the human trace amine associated receptor 1 (TAAR1).; type: functional
# T1 sequence (Q96RJ0 whole entry): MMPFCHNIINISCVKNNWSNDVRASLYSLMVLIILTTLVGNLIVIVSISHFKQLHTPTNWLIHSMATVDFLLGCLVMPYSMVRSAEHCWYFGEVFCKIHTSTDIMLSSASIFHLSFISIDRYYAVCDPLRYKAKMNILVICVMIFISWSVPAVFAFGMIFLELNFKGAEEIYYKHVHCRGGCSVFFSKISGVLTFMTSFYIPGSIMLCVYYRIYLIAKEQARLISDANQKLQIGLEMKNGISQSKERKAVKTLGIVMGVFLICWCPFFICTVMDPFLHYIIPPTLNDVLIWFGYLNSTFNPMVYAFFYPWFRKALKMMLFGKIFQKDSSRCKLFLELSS
# [3] = target: T1, Trace amine-associated receptor 1; experiment: Counterscreen for agonists of the human trace amine associated receptor 1 (hTAAR1): Fluorescence-based cell-based high throughput dose response assay to identify hTAAR1 agonist that also desensitize TAAR1 receptor response.; type: functional
# [4] = cells; type: functional, cell-based; remark: listed apart in the source
# [5] = target: Large T antigen (Simian virus 40, UniProt P03070); type: functional, Betapolyomavirus macacae;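 note: Confirmatory-stage PubChem screen for compounds that inhibit SV40 T antigen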
# [6] = target: FAD-linked sulfhydryl oxidase ALR (Homo sapiens, UniProt P55789); experiment: inhibitors of human ALR sulfhydryl oxidase, dose response, biochemical, H2O2 detection, luminescence, cherry-pick (AID 493248)
# [7] = target: T2, DNA repair protein RAD52 homolog (Homo sapiens, UniProt P43351); type: functional, biochemical
# T2 sequence (P43351 whole entry): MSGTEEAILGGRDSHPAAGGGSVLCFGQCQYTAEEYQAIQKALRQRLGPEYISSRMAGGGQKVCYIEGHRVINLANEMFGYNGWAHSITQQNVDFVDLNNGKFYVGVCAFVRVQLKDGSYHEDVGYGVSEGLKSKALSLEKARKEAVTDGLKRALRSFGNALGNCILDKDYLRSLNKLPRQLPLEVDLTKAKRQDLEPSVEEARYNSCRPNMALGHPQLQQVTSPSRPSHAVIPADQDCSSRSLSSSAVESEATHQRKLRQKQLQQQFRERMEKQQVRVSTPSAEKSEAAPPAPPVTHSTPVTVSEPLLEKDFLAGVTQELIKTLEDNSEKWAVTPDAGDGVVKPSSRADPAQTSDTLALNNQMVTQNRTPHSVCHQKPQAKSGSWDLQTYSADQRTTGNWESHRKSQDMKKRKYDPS
# [8] = target: T3, Short transient receptor potential channel 4 (Mus musculus, UniProt Q9QUQ5); experiment: mouse TRPC4 channel activators, dose response, cell-based, HEK293 TRPC4/mu-opioid, Fluo-4 calcium (AID 434937); type: functional
# T3 sequence (Q9QUQ5 whole entry): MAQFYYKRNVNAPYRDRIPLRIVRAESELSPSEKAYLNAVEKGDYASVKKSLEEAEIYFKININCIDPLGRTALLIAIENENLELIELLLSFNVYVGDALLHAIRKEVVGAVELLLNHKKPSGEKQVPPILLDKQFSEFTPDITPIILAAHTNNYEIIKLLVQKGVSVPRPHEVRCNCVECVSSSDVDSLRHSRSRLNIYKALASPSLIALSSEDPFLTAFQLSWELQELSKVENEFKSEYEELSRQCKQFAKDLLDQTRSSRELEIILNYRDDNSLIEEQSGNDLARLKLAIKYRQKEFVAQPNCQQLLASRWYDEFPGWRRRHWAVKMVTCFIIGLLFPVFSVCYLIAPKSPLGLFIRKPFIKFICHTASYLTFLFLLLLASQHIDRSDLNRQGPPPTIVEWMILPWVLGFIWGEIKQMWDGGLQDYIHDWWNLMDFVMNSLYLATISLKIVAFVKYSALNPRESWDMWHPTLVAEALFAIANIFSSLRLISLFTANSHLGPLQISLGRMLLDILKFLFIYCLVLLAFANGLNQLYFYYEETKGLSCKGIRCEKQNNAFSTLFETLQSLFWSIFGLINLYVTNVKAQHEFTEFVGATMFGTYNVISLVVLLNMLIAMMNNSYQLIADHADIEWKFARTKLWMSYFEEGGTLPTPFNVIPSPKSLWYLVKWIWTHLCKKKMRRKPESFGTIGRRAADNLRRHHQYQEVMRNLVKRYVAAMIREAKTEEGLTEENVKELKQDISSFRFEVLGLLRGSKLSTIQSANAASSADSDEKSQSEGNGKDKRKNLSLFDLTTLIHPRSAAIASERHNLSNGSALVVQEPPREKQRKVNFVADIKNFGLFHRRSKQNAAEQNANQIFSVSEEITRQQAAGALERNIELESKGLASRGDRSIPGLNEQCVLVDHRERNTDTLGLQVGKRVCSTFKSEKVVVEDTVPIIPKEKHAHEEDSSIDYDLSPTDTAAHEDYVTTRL
# [9] = A549 cell cytotoxicity, dose response, cytotoxicity control, plate reader, cherry-pick, antagonist series (AID 743412); type: functional, cell-based
# [10] = target: Mitogen-activated protein kinase 10 (Homo sapiens, UniProt P53779); experiment: Dose response biochemical screening assay for inhibitors of c-Jun N-Terminal Kinase 3 (JNK3). [Related pubchem assays: 746 ]
# [11] = target: Eukaryotic translation initiation factor 4E (Mus musculus, UniProt P63073); experiment: eIF4E–eIF4G protein interaction inhibitors, dose response, biochemical, TR-FRET (AID 855); type: functional;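 note: potency for disrupting eIF4E binding to eIF4GI seen as loss of FRET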
# [12] = inhibitors of intracellular T. cruzi replication, confirmation, NIH3T3 host cells, beta-gal luminescence (AID 2044); type: functional, cell-based;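 note: intracellular parasites grown in NIH/3T3 mouse fibroblasts as host cells; luminescent beta-galactosidase reporter signal from transgenic T. cruzi replicating inside host cells; inhibitors lower the luminescence signal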
# [13] = cytotoxicity toward NIH3T3 fibroblasts, dose response, counter-screen, cell-based, ATP luminescence, mouse fibroblasts (AID 2010); type: functional;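 note: cells exposed to compound for about 90 hours before reading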
# [14] = test system: INS1; experiment: beta cell apoptosis inhibitors, cytokine rescue, dose response, luminescence, retest (AID 449756); type: functional, cell-based; details: Rattus norvegicus;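 note: cell death triggered by IL-1 beta plus TNF-alpha plus IFN-gamma mixture; protective hits raise ATP signal compared with cytokine alone wells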
# [15] = target: T3, Short transient receptor potential channel 4; experiment: mouse TRPC4 channel inhibitors, dose response, cell-based, HEK293 TRPC4/mu-opioid, Fluo-4 calcium (AID 434942); type: functional;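 note: potency of inhibitors blocking the TRPC4 calcium response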
# [16] = target: T4, DNA repair and recombination protein RAD54-like (Homo sapiens, UniProt Q92698); experiment: inhibitors of human RAD54 branch migration, confirmation, biochemical, fluorescence, cherry-picked samples, dose series (AID 651657); type: functional
# T4 sequence (Q92698 whole entry): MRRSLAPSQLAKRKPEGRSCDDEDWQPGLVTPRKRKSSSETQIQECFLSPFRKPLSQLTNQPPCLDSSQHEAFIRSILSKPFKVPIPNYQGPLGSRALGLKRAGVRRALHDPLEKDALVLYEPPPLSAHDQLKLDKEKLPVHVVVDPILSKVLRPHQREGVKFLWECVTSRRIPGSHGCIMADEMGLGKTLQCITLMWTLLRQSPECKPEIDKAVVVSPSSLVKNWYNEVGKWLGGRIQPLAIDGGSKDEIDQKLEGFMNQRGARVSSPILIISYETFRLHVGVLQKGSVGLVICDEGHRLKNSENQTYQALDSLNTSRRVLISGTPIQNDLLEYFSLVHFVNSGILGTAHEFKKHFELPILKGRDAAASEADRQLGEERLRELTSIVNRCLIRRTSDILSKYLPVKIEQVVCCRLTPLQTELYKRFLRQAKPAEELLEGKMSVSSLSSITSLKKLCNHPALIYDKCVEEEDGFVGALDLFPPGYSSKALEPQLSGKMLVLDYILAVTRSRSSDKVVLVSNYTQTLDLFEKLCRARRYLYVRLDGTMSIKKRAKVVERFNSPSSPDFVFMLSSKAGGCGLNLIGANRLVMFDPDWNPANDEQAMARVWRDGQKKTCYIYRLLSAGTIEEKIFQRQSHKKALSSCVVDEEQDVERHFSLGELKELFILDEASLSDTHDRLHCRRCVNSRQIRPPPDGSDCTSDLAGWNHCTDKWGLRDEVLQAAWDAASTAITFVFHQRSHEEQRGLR
# [17] = inhibitors of HIV Env-driven cell fusion, dose response, cherry-pick (AID 652057); type: functional, cell-based
# [18] = ZM109 Env clade C HIV-1 fusion inhibitors, dose response, HeLa effector, CEM target cells, luciferase, cherry-pick (AID 652058); type: functional, cell-based
# [19] = inhibitors of clade B AD8 Env fusion, dose response, cell-based, cherry-pick (AID 652062); type: functional;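 note: luciferase signal from cell-cell fusion driven by HIV-1 clade B AD8 Env; potency is for inhibitors of fusion seen as a drop in luminescence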
# Chain of Mitogen-activated protein kinase 10 (P53779 whole entry): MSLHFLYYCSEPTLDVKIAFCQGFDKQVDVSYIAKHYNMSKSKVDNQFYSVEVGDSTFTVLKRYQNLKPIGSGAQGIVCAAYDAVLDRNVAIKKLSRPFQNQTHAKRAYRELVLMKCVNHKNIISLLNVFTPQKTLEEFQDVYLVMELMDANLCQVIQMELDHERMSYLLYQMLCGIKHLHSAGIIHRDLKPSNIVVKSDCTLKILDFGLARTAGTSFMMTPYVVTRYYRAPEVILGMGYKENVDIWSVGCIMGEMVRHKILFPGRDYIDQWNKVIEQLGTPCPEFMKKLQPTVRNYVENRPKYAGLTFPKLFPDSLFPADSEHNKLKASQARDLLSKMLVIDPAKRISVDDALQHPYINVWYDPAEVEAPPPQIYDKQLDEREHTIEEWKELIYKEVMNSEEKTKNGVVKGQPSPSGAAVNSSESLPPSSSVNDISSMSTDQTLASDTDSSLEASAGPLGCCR
# Chain of Large T antigen (P03070 whole entry): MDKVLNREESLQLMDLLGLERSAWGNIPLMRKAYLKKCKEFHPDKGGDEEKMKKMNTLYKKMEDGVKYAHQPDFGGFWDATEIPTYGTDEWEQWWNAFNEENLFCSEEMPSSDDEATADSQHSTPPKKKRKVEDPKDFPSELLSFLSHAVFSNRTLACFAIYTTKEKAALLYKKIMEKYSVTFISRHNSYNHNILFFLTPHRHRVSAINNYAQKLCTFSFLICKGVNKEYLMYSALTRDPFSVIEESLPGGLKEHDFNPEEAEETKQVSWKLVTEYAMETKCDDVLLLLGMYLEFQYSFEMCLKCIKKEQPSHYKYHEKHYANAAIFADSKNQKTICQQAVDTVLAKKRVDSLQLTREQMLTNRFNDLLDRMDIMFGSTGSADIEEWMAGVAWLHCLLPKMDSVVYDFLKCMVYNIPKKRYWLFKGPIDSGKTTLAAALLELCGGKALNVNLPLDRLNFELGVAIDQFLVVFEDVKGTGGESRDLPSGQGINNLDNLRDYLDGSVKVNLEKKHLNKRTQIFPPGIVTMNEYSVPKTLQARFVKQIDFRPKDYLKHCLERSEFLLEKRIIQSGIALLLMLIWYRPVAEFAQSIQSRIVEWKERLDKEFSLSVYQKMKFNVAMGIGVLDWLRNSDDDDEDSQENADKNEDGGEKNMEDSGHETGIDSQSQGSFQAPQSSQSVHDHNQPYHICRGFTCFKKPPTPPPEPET
# Chain of FAD-linked sulfhydryl oxidase ALR (P55789 whole entry): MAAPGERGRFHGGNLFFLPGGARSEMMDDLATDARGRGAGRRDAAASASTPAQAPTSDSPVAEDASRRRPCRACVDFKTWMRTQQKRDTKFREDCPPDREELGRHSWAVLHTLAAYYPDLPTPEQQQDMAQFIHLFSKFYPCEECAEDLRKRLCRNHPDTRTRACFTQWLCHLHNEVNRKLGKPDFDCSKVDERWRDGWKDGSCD
# Chain of Eukaryotic translation initiation factor 4E (P63073 whole entry): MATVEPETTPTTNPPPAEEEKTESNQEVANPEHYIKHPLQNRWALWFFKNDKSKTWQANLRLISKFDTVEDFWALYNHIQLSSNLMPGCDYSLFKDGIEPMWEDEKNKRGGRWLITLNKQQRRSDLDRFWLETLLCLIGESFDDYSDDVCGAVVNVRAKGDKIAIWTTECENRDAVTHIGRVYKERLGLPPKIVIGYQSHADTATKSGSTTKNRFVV
structure (smiles),measurement,setting,value
O=C(O)C1C2C=CC(C2)C1C(=O)NCCC1=CCCCC1 (centres undefined),IC50,[1],> 29.9 µM (inactive)
same,EC50,[2],0.916 µM (active)
same,IC50,[3],> 29.9 µM (inactive)
same,EC50,[4],> 29.9 µM (inactive)
Oc1ccc(C2CNCCc3c2cc(O)c(O)c3Cl)cc1 (centres undefined) [FENOLDOPAM MESYLATE],IC50,[5],> 100 µM (active)
same,AC50,[6],1.37 µM (active)
same,IC50,[1],> 29.9 µM (inactive)
same,EC50,[2],2.7 µM (active)
same,AC50,[7],21.7 µM (active)
same,IC50,[3],8.04 µM (active)
same,EC50,[4],> 29.9 µM (inactive)
COc1ccc(C(CNC(=O)c2cc(SC)ccc2Cl)N(C)C)cc1 (centres undefined),EC50,[8],0.944 µM (active)
CN(CCc1ccccn1)C1CC(=O)N(c2ccc(Cl)cc2)C1=O (centres undefined),EC50,[8],2.11 µM (active)
COCC(=O)N[C@@H]1CC[C@@H](CC(=O)NCc2ccccc2OC)O[C@@H]1CO,AC50,[9],> 52 µM (inactive)
N#CCCSc1ncnc2c1oc1ccccc12,IC50,[10],27.7 µM (not active)
O=C(O)CSc1nnc(COc2cccc3cccnc23)n1-c1cccc(C(F)(F)F)c1,IC50,[11],50 µM (inactive)
CCOC(=O)c1c(C)[nH]c2ccc(O)cc12,IC50,[10],> 93.1 µM (not active)
CCOC(=O)c1c(NC(=O)C[n+]2ccc(Cc3ccccc3)cc2)sc(C)c1C,EC50,[12],1.83 µM (active)
same,EC50,[13],> 60 µM (not active)
same,AC50,[14],5.35 µM (active)
same,AC50,[7],20.5 µM (active)
O=C(NCCc1ccc(O)cc1)c1[nH]c(C(F)(F)F)nc1-c1ccccc1,IC50,[1],> 29.9 µM (inactive)
same,EC50,[2],0.485 µM (active)
same,IC50,[3],5.53 µM (active)
same,EC50,[4],> 29.9 µM (inactive)
COc1ccccc1Nc1nc(NCC2CCCO2)c2ccccc2n1 (centres undefined),EC50,[12],0.194 µM (active)
same,EC50,[13],> 60 µM (not active)
same,EC50,[15],2.66 µM (active)
same,AC50,[16],81.9 µM (active)
O=C(NC1CC1)C1=C[C@H](C2CCCCC2)C[C@H](OCc2ccc(CO)cc2)O1,EC50,[15],5.31 µM (active)
same,EC50,[8],4.22 µM (active)
Cn1nnnc1SCc1ccc(C(=O)Nc2nccs2)cc1,IC50,[10],56.9 µM (not active)
NCCCCCC(=O)N/N=C/c1ccc2nccnc2c1,AC50,[7],16.3 µM (active)
O=C(CCCn1c(=S)[nH]c2ccccc2c1=O)NCc1ccco1,IC50,[10],49.2 µM (not active)
Cc1cccn2c(=O)c3cc(C(=O)NCC4CCCO4)c(=N)n(C4CCCCC4)c3nc12 (centres undefined),AC50,[16],56 µM (active)
C[C@@H]1CN([C@@H](C)CO)C(=O)c2ccccc2-c2ccccc2CO[C@@H]1CN(C)C(=O)Nc1ccc2c(c1)OCO2,AC50,[17],0.318 µM (active)
same,AC50,[18],0.54 µM (active)
same,AC50,[19],1.6 µM (active)
CCOC(=O)[C@]12CCCC=C1N(CCC1=CCCCC1)C(=O)[C@H](CC(=O)NCCc1ccccc1OC)C2,IC50,[1],26.9 µM (inactive)
same,EC50,[2],3.59 µM (active)
same,IC50,[3],5.92 µM (active)
same,EC50,[4],> 29.9 µM (inactive)
CN1CCN(CCCC(=O)c2ccc(C3CCCC3)cc2)CC1,AC50,[7],19.7 µM (active)
CCOc1cc2[nH]c(=O)n(Cc3ccc(C(=O)NCCCN4CCC(C)CC4)cc3)c(=O)c2cc1OCC,AC50,[16],55.9 µM (active)
